These results are taken from BindingDB's records for doi:10.7270/Q2DZ06SS (Burnham Center For Chemical Genomics, 2011).

The assay deals with T1, BRCA1-associated RING domain protein 1 (Homo sapiens, UniProt Q99728).
T1 sequence (Q99728 whole entry): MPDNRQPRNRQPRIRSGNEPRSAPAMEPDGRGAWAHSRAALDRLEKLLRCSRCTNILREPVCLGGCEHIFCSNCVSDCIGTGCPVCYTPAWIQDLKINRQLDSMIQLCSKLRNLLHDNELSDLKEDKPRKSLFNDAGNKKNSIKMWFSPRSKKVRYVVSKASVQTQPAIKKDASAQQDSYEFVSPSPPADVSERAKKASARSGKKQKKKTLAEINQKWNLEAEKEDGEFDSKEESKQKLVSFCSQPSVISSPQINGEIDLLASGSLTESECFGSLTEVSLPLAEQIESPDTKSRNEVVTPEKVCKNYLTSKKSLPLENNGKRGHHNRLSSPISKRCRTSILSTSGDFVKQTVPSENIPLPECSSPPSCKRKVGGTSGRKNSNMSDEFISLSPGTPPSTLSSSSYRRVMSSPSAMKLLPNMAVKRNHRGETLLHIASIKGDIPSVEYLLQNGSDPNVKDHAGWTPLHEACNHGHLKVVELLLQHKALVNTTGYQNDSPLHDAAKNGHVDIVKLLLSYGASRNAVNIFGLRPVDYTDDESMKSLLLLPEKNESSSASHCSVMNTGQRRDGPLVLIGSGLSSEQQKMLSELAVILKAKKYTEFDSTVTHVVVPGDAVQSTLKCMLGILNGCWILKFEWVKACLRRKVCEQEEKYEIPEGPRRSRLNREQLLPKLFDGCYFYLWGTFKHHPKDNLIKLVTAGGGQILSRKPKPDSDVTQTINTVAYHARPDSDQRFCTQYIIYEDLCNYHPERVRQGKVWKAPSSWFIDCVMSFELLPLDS
Briefly: Brca1-Bard1 BiLC signal decrease – cell-based, luminescence, counter-screen for Mdm2/MdmX interaction inhibitor project, dose response (AID 504669). For orientation: Counterscreens check selectivity or assay interference.

For the compound `Cc1cc(N=NC(C)c2ccccc2O)nc(-c2ccccc2O)n1` (stereo unspecified), the IC50 (commonly the concentration needed to halve the response being measured) was 5.35 µM.
